Measured values reported in patent US20090149440A1, “NOVEL PYRIDONECARBOXYLIC ACID DERIVATIVES OR SALTS THEREOF” (priority 2004, published 2009).
Values after ≈ are worked out from the molar mass of the structure shown. Values belong to the molecule of their own block, whether it stands above or below them.

How the values were obtained:
S. haemolytlcus 67 = assay: Antibacterial activity, minimum inhibitory concentration (standard method of the Japanese Society of Chemotherapy); assay type: cell-based
Protocol: (§1) Minimum inhibitory concentration (MIC: μg/mL) of the compounds shown in Table 1 was determined according to the standard method of the Japanese Society of Chemotherapy (CHEMOTHERAPY 29(1), 76, 1981).

M. luteus IFO12708 = assay: as above; assay type: cell-based; settings: Micrococcus luteus
Protocol: as §1

MRSA W44 = assay: as above; assay type: cell-based; settings: Staphylococcus aureus
Protocol: as §1

P. mirabilis IFO3849 = assay: as above; assay type: cell-based; settings: Proteus mirabilis
Protocol: as §1

female ICR mice = assay: Phototoxicity test: ear abnormalities after UV irradiation; assay type: in vivo; parameters: key to Phototoxicity score: normal (0 point); slight erythema (score 1); medium erythema (score 2); serious erythema or edema (score 3); settings: 40 mg/10 mL/kg intravenously, UV 320 to 400 nm for four hours
Protocol: Each test compound was intravenously administered (40 mg/10 mL/kg) to female ICR mice (5- to 6-weeks old), and the mice were irradiated with UV-rays (320 to 400 nm, 1.8 mW/cm^2/sec) for four hours. Abnormalities induced in the ear of each mouse were observed immediately after (0 hour), 24 hours after, and 48 hours after the irradiation. The abnormality was evaluated according to the following criteria: normal (0 point), slight erythema (score 1), medium erythema (score 2), and serious erythema or edema (score 3).

human serum proteins = assay: Binding rate to proteins by ultrafiltration method; assay type: in vitro ADME; settings: 5 μg/mL, 37° C. for 30 minutes
Protocol: Binding rate to proteins of the compounds shown in Table 3 was determined by ultrafiltration method. Specifically, a 0.5 mg/mL DMSO solution of each compound was diluted with human serum or a 0.4% phosphate buffer (pH: 7.4 containing 0.5% NaCl) to thereby prepare a 5 μg/mL solution. The human serum solution was incubated at 37° C. for 30 minutes and centrifugally filtrated through a filter (pore size: 0.22 μm). A portion of the serum filtrate and the phosphate buffer solution were applied to an HPLC system, and the peak area of the compound was measured. Binding rate of each compound to human serum proteins was calculated by the following equation 1: Binding rate (%)=(A−B)×100/A (equation 1) A: Peak area (in phosphate buffer) B: Peak area (in serum filtrate)

[1] = Pharmacokinetics: absorbability after oral administration, serum level; assay type: in vivo, dogs; settings: for Cmax / Tmax / half-life / AUC: dog, male beagle dogs, fasted, 10 mg/kg oral, 0.5% methylcellulose suspension, serum; for AUC: read-out: AUCO to 8 h
Protocol: Absorbability of the compounds shown in Table 4 was investigated in dogs. Specifically, a 0.5% methylcellulose suspension of each test compound (10 mg/kg) was forcedly orally administered to 2- to 4-years old male beagle dogs which had been fasted for 16 to 17 hours. The blood was collected from each dog at 0.25, 0.5, 1, 2, 4, 6, 8, and 24 hours after the administration, and the serum level of the test compound was determined to evaluate absorbability of the compound.

SMILES: CC(C)NC1CN(c2c(F)cc3c(=O)c(C(=O)O)cn(-c4nc(N)c(F)cc4F)c3c2Br)C1.Cl
melting point: ≥ 210 °C (dec.)

SMILES: CC(C)NC1CN(c2c(F)cc3c(=O)c(C(=O)O)cn(-c4nc(N)c(F)cc4F)c3c2Br)C1 [compound 1, 1-(6-Amino-3,5-difluoropyridin-2-yl)-8-bromo-6-fluoro-7-(3-isopropylaminoazetidin-1-yl)-4-oxo-1,4-dihydroquinolin-3-carboxylic acid]
MIC (S. haemolytlcus 67): 4 µg/mL (≈ 7.6 µM)
MIC (M. luteus IFO12708): 0.12 µg/mL (≈ 0.228 µM)
MIC (MRSA W44): 0.03 µg/mL (≈ 0.057 µM)
MIC (P. mirabilis IFO3849): 0.25 µg/mL (≈ 0.475 µM)
Phototoxicity incidence (female ICR mice; 0 hour after irradiation): 0/3
Phototoxicity score (female ICR mice; 0 hour after irradiation): 0
Phototoxicity incidence (female ICR mice; 24 hours after irradiation): 0/3
Phototoxicity score (female ICR mice; 24 hours after irradiation): 0
Phototoxicity incidence (female ICR mice; 48 hours after irradiation): 0/3
Phototoxicity score (female ICR mice; 48 hours after irradiation): 0
Binding rate to proteins (human serum proteins): 64.0%

SMILES: CNC1CN(c2c(F)cc3c(=O)c(C(=O)O)cn(-c4nc(N)c(F)cc4F)c3c2Br)C1 [compound 1, 1-(6-amino-3,5-difluoropyridin-2-yl)-8-bromo-6-fluoro-7-(3-methylaminoazetidin-1-yl)-4-oxo-1,4-dihydroquinolin-3-carboxylic acid]
MIC (S. haemolytlcus 67): 8 µg/mL (≈ 16.1 µM)
MIC (M. luteus IFO12708): 0.25 µg/mL (≈ 0.502 µM)
MIC (MRSA W44): 0.06 µg/mL (≈ 0.12 µM)
MIC (P. mirabilis IFO3849): 0.5 µg/mL (≈ 1 µM)
Phototoxicity incidence (female ICR mice; 0 hour after irradiation): 0/3
Phototoxicity score (female ICR mice; 0 hour after irradiation): 0
Phototoxicity incidence (female ICR mice; 24 hours after irradiation): 0/3
Phototoxicity score (female ICR mice; 24 hours after irradiation): 0
Phototoxicity incidence (female ICR mice; 48 hours after irradiation): 0/3
Phototoxicity score (female ICR mice; 48 hours after irradiation): 0
Binding rate to proteins (human serum proteins): 49.0%

SMILES: CC(C)(C)NC1CN(c2c(F)cc3c(=O)c(C(=O)O)cn(-c4nc(N)c(F)cc4F)c3c2Cl)C1 [compound 5, 1-(6-Amino-3,5-difluoropyridin-2-yl)-7-(3-tert-butylaminoazetidin-1-yl)-8-chloro-6-fluoro-4-oxo-1,4-dihydroquinolin-3-carboxylic acid]
melting point: ≥ 250 °C (dec.)

SMILES: Cc1c(N2CC(NC(C)(C)C)C2)c(F)cc2c(=O)c(C(=O)O)cn(-c3nc(N)c(F)cc3F)c12 [compound 6, 1-(6-Amino-3,5-difluoropyridin-2-yl)-7-(3-tert-butylaminoazetidin-1-yl)-6-fluoro-8-methyl-4-oxo-1,4-dihydroquinolin-3-carboxylic acid]
Binding rate to proteins (human serum proteins): 26.8%
melting point: ≥ 193 °C (dec.)

SMILES: CC(C)Nc1nc(-n2cc(C(=O)O)c(=O)c3cc(F)c(N4CC(NC(C)C)C4)c(Cl)c32)c(F)cc1F [compound 10, 8-Chloro-1-(3,5-difluoro-6-isopropylaminopyridin-2-yl)-6-fluoro-7-(3-isopropylaminoazetidin-1-yl)-4-oxo-1,4-dihydroquinolin-3-carboxylic acid]
melting point: ≥ 248 °C (dec.)

SMILES: CNc1nc(-n2cc(C(=O)O)c(=O)c3cc(F)c(N4CC(NC(C)C)C4)c(Br)c32)c(F)cc1F [compound 11, 8-Bromo-1-(3,5-difluoro-6-methylaminopyridin-2-yl)-6-fluoro-7-(3-isopropylaminoazetidin-1-yl)-4-oxo-1,4-dihydroquinolin-3-carboxylic acid]
melting point: ≥ 220 °C (dec.)

SMILES: CC(C)NC1CN(c2c(F)cc3c(=O)c(C(=O)O)cn(-c4nc(N)c(F)cc4F)c3c2Br)C1.O=C(O)/C=C\C(=O)O [compound 12, 1-(6-amino-3,5-difluoropyridin-2-yl)-8-bromo-6-fluoro-7-(3-isopropylaminoazetidin-1-yl)-4-oxo-1,4-dihydroquinolin-3-carboxylic acid maleic acid salt]
Cmax [1]: 5250 ng/mL
Tmax [1]: 1 h
half-life [1]: 5.8 h
AUC [1]: 30900 ng·h/mL
Pharmacokinetics (in words) ([1]; dogs, oral, compared with comparative compounds 3 and 4): remarkably improved
Binding rate to proteins (human serum proteins): 64.0%

More lines, main results first:

melting point: ≥ 205 °C (dec.)
SMILES: CC(C)NC1CN(c2c(F)cc3c(=O)c(C(=O)O)cn(-c4nc(N)c(F)cc4F)c3c2Cl)C1 [compound 2, 1-(6-Amino-3,5-difluoropyridin-2-yl)-8-chloro-6-fluoro-7-(3-isopropylaminoazetidin-1-yl)-4-oxo-1,4-dihydroquinolin-3-carboxylic acid]

MIC (M. luteus IFO12708): 0.25 µg/mL (≈ 0.488 µM)
MIC (MRSA W44): 0.06 µg/mL (≈ 0.117 µM)
MIC (P. mirabilis IFO3849): 0.25 µg/mL (≈ 0.488 µM)
Binding rate to proteins (human serum proteins): 62.8%
SMILES: CCNC1CN(c2c(F)cc3c(=O)c(C(=O)O)cn(-c4nc(N)c(F)cc4F)c3c2Br)C1 [compound 2, 1-(6-amino-3,5-difluoropyridin-2-yl) 8-bromo-7-(3-ethylaminoazetidin-1-yl)-6-fluoro-4-oxo-1,4-dihydroquinolin-3-carboxylic acid]
MIC (S. haemolytlcus 67): 8 µg/mL (≈ 15.6 µM)
Phototoxicity incidence (female ICR mice; 0 hour after irradiation): 0/3
Phototoxicity score (female ICR mice; 0 hour after irradiation): 0
Phototoxicity incidence (female ICR mice; 24 hours after irradiation): 0/3
Phototoxicity score (female ICR mice; 24 hours after irradiation): 0
Phototoxicity incidence (female ICR mice; 48 hours after irradiation): 0/3
Phototoxicity score (female ICR mice; 48 hours after irradiation): 0

Binding rate to proteins (human serum proteins): 44.3%
melting point: ≥ 238 °C (dec.)
SMILES: CCc1c(N2CC(NC(C)C)C2)c(F)cc2c(=O)c(C(=O)O)cn(-c3nc(N)c(F)cc3F)c12 [compound 3, 1-(6-Amino-3,5-difluoropyridin-2-yl)-6-fluoro-7-(3-isopropylaminoazetidin-1-yl)-8-ethyl-4-oxo-1,4-dihydroquinolin-3-carboxylic acid]

Cmax [1]: 1490 ng/mL
Tmax [1]: 1 h
half-life [1]: 3.2 h
AUC [1]: 7600 ng·h/mL
SMILES: CNC1CN(c2c(F)cc3c(=O)c(C(=O)O)cn(-c4nc(N)c(F)cc4F)c3c2Br)C1.O=C(O)/C=C\C(=O)O [compound 3, 1-(6-amino-3,5-difluoropyridin-2-yl) 8-bromo-6-fluoro-7-(3-methylaminoazetidin-1-yl)-4-oxo-1,4-dihydroquinolin-3-carboxylic acid maleic acid salt]

Binding rate to proteins (human serum proteins): 44.9%
melting point: ≥ 225 °C (dec.)
SMILES: CC(C)(C)NC1CN(c2c(F)cc3c(=O)c(C(=O)O)cn(-c4nc(N)c(F)cc4F)c3c2Br)C1 [compound 4, 1-(6-Amino-3,5-difluoropyridin-2-yl)-8-bromo-7-(3-tert-butylaminoazetidin-1-yl)-6-fluoro-4-oxo-1,4-dihydroquinolin-3-carboxylic acid]

Cmax [1]: 3730 ng/mL
Tmax [1]: 1 h
half-life [1]: 4.3 h
AUC [1]: 17500 ng·h/mL
SMILES: CCNC1CN(c2c(F)cc3c(=O)c(C(=O)O)cn(-c4nc(N)c(F)cc4F)c3c2Br)C1.O=C(O)/C=C\C(=O)O [compound 4, 1-(6-amino-3,5-difluoropyridin-2-yl) 8-bromo-7-(3-ethylaminoazetidin-1-yl)-6-fluoro-4-oxo-1,4-dihydroquinolin-3-carboxylic acid maleic acid salt]

melting point: ≥ 218 °C (dec.)
SMILES: CNc1nc(-n2cc(C(=O)O)c(=O)c3cc(F)c(N4CC(NC(C)C)C4)c(C)c32)c(F)cc1F [compound 7, 1-(3,5-Difluoro-6-methylaminopyridin-2-yl)-6-fluoro-7-(3-isopropylaminoazetidin-1-yl)-8-methyl-4-oxo-1,4-dihydroquinolin-3-carboxylic acid]

melting point: ≥ 202 °C (dec.)
SMILES: CCNc1nc(-n2cc(C(=O)O)c(=O)c3cc(F)c(N4CC(NC(C)C)C4)c(C)c32)c(F)cc1F [compound 8, 1-(6-Ethylamino-3,5-difluoropyridin-2-yl)-6-fluoro-7-(3-isopropylaminoazetidin-1-yl)-8-methyl-4-oxo-1,4-dihydroquinolin-3-carboxylic acid]

melting point: ≥ 244 °C (dec.)
SMILES: CNc1nc(-n2cc(C(=O)O)c(=O)c3cc(F)c(N4CC(NC(C)C)C4)c(Cl)c32)c(F)cc1F [compound 9, 8-Chloro-1-(3,5-difluoro-6-methylaminopyridin-2-yl)-6-fluoro-7-(3-isopropylaminoazetidin-1-yl)-4-oxo-1,4-dihydroquinolin-3-carboxylic acid]

melting point: ≥ 224 °C (dec.)
SMILES: CC(C)NC1CN(c2c(F)cc3c(=O)c(C(=O)O)cn(-c4nc(N)c(F)cc4F)c3c2Br)C1.CS(=O)(=O)O [compound 13, 1-(6-Amino-3,5-difluoropyridin-2-yl)-8-bromo-6-fluoro-7-(3-isopropylaminoazetidin-1-yl)-4-oxo-1,4-dihydroquinolin-3-carboxylic acid methanesulfonic acid salt]
